The source of these data is BindingDB's records for doi:10.1124/jpet.103.058636 (National Institutes of Health, 2004).

The assay concerns the target Sodium-dependent serotonin transporter (Mus musculus, UniProt Q60857).

Sequence of Sodium-dependent serotonin transporter (Q60857 whole entry): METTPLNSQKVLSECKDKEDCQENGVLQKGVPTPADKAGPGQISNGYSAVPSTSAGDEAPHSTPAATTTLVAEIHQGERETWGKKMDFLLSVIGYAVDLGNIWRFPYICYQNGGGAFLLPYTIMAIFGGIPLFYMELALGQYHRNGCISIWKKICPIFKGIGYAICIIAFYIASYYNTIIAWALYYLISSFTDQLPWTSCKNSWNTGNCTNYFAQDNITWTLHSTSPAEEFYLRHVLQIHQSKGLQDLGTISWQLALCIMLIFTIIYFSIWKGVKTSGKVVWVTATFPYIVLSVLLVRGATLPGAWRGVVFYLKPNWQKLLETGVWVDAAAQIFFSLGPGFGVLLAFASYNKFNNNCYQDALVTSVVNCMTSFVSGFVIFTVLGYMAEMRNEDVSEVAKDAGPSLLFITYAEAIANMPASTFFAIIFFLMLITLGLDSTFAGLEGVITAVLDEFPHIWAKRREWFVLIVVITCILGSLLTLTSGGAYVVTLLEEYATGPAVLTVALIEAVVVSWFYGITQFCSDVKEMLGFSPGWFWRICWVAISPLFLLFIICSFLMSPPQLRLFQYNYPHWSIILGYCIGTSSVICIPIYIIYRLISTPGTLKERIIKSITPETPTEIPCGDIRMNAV

One may read the Ki as the dissociation constant of the complex between target and ligand, obtained from inhibition or displacement. In turn, `CCNC(C)Cc1cccc(C(F)(F)F)c1` (stereo unspecified) [NSC_3337] returned a Ki of 7.05 µM.
